Earlier results on one substance are cited in publication PMC3975045 (ACS medicinal chemistry letters, 2013).

For the data set, the system named is OX1 and OX2.

For [Ala^11,D-Leu^15]orexin B, the “selectivity for OX2 over OX1” value is reported as 400 fold.
